How the values were obtained:
[1] = target: Cyclin-dependent kinase 5/CDK5 activator 1 (Homo sapiens, UniProt Q00535); assay type: protein-complex assay
Description: Inhibition of human recombinant CDK5/p25 using histone H1 as substrate in presence of [gamma-33P]ATP incubated for 30 mins by liquid scintillation counting assay

SH-SY5Y = assay: Cytotoxicity against human SH-SY5Y cells assessed as reduction in cell viability incubated for 72 hrs by MTT assay; assay type: cell-based
[2] = test system: Tyrosine-protein kinase ABL1 (Homo sapiens), P00519 [Q252H]; assay: Binding affinity to human non-phosphorylated ABL1 Q252H mutant (S229 to K512 residues) expressed in mammalian expression system assessed as residual binding level at 10 uM by Kinomescan method relative to control
[3] = target: Atypical kinase COQ8A, mitochondrial (Homo sapiens) (UniProt Q8NI60); assay: Binding affinity to wild-type human full length ADCK3 (M280 to Q647 residues) expressed in bacterial expression system assessed as residual binding level at 10 uM by Kinomescan method relative to control
[4] = test system: ALK tyrosine kinase receptor (Homo sapiens), Q9UM73 [L1196M]; assay: Binding affinity to wild-type human partial length ALK L1196M mutant (I1088 to E1409 residues) expressed in mammalian expression system assessed as residual binding level at 10 uM by Kinomescan method relative to control
[5] = target: Calcium/calmodulin-dependent protein kinase type II subunit beta (Homo sapiens) (UniProt Q13554); assay: Binding affinity to wild-type human partial length CAMK2B (M1 to Q380 residues) expressed in bacterial expression system assessed as residual binding level at 10 uM by Kinomescan method relative to control
[6] = target: Death-associated protein kinase 1 (Homo sapiens) (UniProt P53355); assay: Binding affinity to wild-type human partial length DAPK1 (M1 to F296 residues) expressed in bacterial expression system assessed as residual binding level at 10 uM by Kinomescan method relative to control
Chain of Death-associated protein kinase 1 (Homo sapiens) (P53355 whole entry, looked up, the tested form may be a part): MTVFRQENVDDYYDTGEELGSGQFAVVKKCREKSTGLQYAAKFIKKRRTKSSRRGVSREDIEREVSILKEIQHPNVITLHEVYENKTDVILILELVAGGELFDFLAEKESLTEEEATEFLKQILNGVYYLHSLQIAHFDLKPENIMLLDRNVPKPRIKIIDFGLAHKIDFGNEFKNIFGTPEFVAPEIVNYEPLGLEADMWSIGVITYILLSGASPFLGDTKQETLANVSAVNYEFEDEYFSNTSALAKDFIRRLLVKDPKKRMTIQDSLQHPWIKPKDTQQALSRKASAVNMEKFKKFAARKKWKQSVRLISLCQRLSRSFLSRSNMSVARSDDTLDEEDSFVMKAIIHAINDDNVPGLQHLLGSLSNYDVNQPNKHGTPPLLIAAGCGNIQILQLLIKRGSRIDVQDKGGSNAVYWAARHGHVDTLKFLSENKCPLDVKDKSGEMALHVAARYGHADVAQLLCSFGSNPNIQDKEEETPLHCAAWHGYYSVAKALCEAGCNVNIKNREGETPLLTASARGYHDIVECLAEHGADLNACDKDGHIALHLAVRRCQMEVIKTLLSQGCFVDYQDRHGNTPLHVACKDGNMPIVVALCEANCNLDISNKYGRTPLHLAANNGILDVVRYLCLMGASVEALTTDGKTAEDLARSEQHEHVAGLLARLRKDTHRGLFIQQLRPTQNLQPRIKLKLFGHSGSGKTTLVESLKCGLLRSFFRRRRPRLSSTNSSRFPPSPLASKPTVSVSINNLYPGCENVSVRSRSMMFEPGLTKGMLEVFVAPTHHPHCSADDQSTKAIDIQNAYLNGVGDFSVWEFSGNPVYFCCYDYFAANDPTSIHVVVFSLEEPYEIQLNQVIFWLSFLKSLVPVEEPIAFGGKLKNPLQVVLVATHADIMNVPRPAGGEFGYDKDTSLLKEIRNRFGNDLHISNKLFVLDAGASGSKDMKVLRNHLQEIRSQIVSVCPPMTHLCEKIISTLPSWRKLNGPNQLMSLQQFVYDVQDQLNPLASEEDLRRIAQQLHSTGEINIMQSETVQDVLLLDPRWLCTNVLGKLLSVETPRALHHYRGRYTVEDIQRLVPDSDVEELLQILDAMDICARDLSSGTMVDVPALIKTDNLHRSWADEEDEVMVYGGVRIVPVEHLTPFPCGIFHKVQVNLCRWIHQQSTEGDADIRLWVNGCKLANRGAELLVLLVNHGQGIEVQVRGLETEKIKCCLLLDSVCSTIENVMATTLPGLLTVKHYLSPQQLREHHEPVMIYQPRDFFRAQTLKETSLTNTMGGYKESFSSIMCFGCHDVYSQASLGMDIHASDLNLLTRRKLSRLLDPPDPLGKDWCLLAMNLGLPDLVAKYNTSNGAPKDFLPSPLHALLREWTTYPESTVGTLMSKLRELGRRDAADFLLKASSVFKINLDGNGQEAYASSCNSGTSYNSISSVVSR

[7] = target: Serine/threonine-protein kinase 17B (Homo sapiens) (UniProt O94768); assay: Binding affinity to wild-type human full length DRAK2 (M1 to C372 residues) expressed in bacterial expression system assessed as residual binding level at 10 uM by Kinomescan method relative to control
[8] = target: Dual specificity tyrosine-phosphorylation-regulated kinase 2 (Homo sapiens) (UniProt Q92630); assay: Binding affinity to wild-type human full length DYRK2 (M1 to S528 residues) expressed in mammalian expression system assessed as residual binding level at 10 uM by Kinomescan method relative to control
[9] = target: Eukaryotic translation initiation factor 2-alpha kinase 1 (Homo sapiens) (UniProt Q9BQI3); assay: Binding affinity to wild-type human partial length EIF2AK1 (Q147 to E603 residues) expressed in mammalian expression system assessed as residual binding level at 10 uM by Kinomescan method relative to control
[10] = target: Mitogen-activated protein kinase 4 (Homo sapiens) (UniProt P31152); assay: Binding affinity to wild-type human partial length ERK4 (M1 to L365 residues) expressed in bacterial expression system assessed as residual binding level at 10 uM by Kinomescan method relative to control
Chain of Mitogen-activated protein kinase 4 (Homo sapiens) (P31152 whole entry, the tested form may be a part): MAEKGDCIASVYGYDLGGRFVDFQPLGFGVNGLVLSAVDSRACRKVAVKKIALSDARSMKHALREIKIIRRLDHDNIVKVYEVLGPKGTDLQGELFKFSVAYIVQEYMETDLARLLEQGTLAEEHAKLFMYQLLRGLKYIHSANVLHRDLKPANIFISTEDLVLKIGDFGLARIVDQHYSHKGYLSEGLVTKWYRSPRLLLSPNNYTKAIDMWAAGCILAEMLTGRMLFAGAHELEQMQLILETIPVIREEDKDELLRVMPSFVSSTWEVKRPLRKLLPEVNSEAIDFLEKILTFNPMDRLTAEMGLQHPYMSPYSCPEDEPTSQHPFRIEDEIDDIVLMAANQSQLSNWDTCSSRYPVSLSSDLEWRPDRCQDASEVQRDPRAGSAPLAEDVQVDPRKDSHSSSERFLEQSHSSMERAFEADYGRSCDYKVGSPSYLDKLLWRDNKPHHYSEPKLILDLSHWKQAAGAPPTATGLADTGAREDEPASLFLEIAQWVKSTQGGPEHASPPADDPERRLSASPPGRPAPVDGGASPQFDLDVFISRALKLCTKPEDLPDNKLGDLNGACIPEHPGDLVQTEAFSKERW

[11] = target: Tyrosine-protein kinase Fgr (Homo sapiens) (UniProt P09769); assay: Binding affinity to wild-type human partial length FGR (L233 to T529 residues) expressed in bacterial expression system assessed as residual binding level at 10 uM by Kinomescan method relative to control
Chain of Tyrosine-protein kinase Fgr (Homo sapiens) (P09769 2-529 limits assumed): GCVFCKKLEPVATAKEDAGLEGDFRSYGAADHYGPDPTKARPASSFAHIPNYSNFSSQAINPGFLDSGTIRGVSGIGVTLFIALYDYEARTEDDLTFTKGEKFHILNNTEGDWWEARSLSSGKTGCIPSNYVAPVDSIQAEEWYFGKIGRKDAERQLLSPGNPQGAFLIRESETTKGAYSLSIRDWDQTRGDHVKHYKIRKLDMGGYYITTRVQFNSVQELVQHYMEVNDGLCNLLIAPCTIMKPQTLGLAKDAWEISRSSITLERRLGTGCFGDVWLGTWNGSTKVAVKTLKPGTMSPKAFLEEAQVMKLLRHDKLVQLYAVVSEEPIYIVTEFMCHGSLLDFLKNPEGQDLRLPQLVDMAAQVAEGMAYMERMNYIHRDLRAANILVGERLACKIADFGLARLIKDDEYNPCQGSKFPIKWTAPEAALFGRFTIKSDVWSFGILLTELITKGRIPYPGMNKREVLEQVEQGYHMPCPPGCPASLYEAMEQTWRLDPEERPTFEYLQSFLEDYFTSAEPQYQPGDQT

[12] = target: Beta-adrenergic receptor kinase 1 (Homo sapiens) (UniProt P25098); assay: Binding affinity to wild-type human full length GRK2 (M1 to L689 residues) expressed in mammalian expression system assessed as residual binding level at 10 uM by Kinomescan method relative to control
Chain of Beta-adrenergic receptor kinase 1 (Homo sapiens) (P25098 whole entry, the tested form may be a part): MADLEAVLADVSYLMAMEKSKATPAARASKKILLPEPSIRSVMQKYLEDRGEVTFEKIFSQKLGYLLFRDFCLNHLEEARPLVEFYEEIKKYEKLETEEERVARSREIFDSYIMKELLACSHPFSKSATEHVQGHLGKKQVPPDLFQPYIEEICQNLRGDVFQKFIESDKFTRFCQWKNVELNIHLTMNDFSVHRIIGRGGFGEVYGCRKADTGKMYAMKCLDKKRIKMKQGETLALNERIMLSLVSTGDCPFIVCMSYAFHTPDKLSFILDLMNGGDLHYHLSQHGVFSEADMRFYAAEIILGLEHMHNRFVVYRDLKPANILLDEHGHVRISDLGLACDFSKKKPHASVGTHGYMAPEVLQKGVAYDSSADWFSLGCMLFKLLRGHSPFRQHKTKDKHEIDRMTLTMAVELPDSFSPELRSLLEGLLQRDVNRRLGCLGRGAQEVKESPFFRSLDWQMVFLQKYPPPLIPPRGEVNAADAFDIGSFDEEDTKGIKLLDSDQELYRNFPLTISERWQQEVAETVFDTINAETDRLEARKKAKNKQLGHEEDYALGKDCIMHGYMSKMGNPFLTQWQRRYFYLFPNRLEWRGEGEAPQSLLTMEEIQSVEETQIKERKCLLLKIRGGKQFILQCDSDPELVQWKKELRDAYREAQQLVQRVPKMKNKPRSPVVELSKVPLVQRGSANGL

[13] = target: G protein-coupled receptor kinase 3 (Homo sapiens) (UniProt P35626); assay: Binding affinity to wild-type human full length GRK3 (M1 to L688 residues) expressed in mammalian expression system assessed as residual binding level at 10 uM by Kinomescan method relative to control
[14] = target: Mast/stem cell growth factor receptor Kit (Homo sapiens) (UniProt P10721); assay: Binding affinity to wild-type human partial length autoinhibited KIT (Y545 to D952 residues) expressed in mammalian expression system assessed as residual binding level at 10 uM by Kinomescan method relative to control
[15] = target: Serine/threonine-protein kinase LATS2 (Homo sapiens) (UniProt Q9NRM7); assay: Binding affinity to wild-type human partial length LATS2 (Q641 to V1088 residues) expressed in mammalian expression system assessed as residual binding level at 10 uM by Kinomescan method relative to control
[16] = target: Myosin light chain kinase, smooth muscle (Homo sapiens) (UniProt Q15746); assay: Binding affinity to wild-type human full length MYLK (M854 to E1845 residues) expressed in mammalian expression system assessed as residual binding level at 10 uM by Kinomescan method relative to control
[17] = target: 3-phosphoinositide-dependent protein kinase 1 (Homo sapiens) (UniProt O15530); assay: Binding affinity to wild-type human full length PDPK1 (M1 to Q556 residues) expressed in bacterial expression system assessed as residual binding level at 10 uM by Kinomescan method relative to control
[18] = target: Phosphatidylinositol 4,5-bisphosphate 3-kinase catalytic subunit beta isoform (Homo sapiens) (UniProt P42338); assay: Binding affinity to wild-type human partial length PIK3CB (P118 to S1070 residues) expressed in mammalian expression system assessed as residual binding level at 10 uM by Kinomescan method relative to control
Chain of Phosphatidylinositol 4,5-bisphosphate 3-kinase catalytic subunit beta isoform (Homo sapiens) (P42338 whole entry, looked up, the tested form may be a part, canonical isoform): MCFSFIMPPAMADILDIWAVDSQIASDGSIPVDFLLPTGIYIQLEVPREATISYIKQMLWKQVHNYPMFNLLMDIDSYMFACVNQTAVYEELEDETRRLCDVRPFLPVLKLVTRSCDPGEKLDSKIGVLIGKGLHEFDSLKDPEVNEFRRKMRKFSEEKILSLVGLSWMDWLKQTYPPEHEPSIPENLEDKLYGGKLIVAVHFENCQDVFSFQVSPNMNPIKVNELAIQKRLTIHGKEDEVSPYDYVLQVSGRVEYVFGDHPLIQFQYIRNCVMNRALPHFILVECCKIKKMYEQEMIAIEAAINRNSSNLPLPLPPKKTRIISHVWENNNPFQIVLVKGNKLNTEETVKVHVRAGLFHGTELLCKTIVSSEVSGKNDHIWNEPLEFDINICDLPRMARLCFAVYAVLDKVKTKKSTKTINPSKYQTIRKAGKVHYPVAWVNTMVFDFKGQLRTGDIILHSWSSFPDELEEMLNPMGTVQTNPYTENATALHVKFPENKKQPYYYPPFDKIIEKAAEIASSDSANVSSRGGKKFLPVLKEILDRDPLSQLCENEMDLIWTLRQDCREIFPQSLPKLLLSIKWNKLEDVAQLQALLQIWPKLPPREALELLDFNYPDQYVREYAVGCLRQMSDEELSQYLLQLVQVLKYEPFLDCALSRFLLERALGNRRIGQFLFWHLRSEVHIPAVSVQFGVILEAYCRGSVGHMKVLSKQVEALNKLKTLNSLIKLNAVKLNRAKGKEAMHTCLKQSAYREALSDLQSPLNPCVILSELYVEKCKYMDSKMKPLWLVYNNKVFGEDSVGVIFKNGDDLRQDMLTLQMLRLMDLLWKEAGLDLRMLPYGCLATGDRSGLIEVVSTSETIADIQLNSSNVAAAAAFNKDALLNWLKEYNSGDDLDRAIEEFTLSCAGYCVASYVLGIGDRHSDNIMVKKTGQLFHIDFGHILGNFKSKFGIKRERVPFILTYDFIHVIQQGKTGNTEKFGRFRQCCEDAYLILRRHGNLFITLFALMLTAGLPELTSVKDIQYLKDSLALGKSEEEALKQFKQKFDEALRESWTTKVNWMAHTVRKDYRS

[19] = target: Proto-oncogene tyrosine-protein kinase receptor Ret (Homo sapiens) (UniProt P07949); assay: Binding affinity to wild-type human partial length RET (E713 to D1014 residues) expressed in bacterial expression system assessed as residual binding level at 10 uM by Kinomescan method relative to control
[20] = target: Dual serine/threonine and tyrosine protein kinase (Homo sapiens) (UniProt Q6XUX3); assay: Binding affinity to wild-type human full length RIPK5 (M1 to T929 residues) expressed in mammalian expression system assessed as residual binding level at 10 uM by Kinomescan method relative to control
[21] = target: Serine/threonine-protein kinase SIK1 (Homo sapiens) (UniProt P57059); assay: Binding affinity to wild-type human partial length SIK (M1 to Y304 residues) expressed in bacterial expression system assessed as residual binding level at 10 uM by Kinomescan method relative to control
Chain of Serine/threonine-protein kinase SIK1 (Homo sapiens) (P57059 whole entry, the tested form may be a part): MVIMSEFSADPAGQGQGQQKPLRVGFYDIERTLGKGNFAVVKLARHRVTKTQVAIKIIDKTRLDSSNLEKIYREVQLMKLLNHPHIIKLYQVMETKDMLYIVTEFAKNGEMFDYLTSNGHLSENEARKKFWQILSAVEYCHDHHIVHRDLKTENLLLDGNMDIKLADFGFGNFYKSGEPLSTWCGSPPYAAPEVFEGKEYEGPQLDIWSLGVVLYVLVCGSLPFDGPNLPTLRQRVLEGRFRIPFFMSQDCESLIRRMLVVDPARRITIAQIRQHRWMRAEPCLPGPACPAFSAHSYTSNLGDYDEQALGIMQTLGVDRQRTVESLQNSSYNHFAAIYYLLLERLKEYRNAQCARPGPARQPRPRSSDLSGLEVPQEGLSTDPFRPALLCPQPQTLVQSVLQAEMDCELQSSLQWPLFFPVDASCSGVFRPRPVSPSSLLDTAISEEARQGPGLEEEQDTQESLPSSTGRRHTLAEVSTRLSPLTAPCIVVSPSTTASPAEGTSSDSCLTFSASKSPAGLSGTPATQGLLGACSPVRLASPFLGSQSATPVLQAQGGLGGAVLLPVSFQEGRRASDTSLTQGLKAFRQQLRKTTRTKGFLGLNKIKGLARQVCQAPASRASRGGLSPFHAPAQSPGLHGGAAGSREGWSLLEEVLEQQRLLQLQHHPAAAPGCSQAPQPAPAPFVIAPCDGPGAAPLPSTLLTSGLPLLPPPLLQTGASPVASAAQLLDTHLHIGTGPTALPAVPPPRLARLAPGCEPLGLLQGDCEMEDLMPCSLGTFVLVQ

[22] = target: Tyrosine-protein kinase TXK (Homo sapiens) (UniProt P42681); assay: Binding affinity to wild-type human partial length TXK (L238 to W527 residues) expressed in bacterial expression system assessed as residual binding level at 10 uM by Kinomescan method relative to control
[23] = target: Wee1-like protein kinase 2 (Homo sapiens) (UniProt P0C1S8); assay: Binding affinity to wild-type human partial length WEE2 (M204 to K492 residues) expressed in bacterial expression system assessed as residual binding level at 10 uM by Kinomescan method relative to control
[24] = target: Serine/threonine-protein kinase WNK1 (Homo sapiens) (UniProt Q9H4A3); assay: Binding affinity to wild-type human partial length WNK1 (Q194 to A490 residues) expressed in mammalian expression system assessed as residual binding level at 10 uM by Kinomescan method relative to control
MDR1 = assay: in vitro; conditions: dog, MDCK-MDR1
Description: Apparent permeability across apical to basolateral side in MDCK2-MDR1 cells by HPLC analysis

O=C(Nc1cc(-c2cn(CCNc3c4c(nc5ccccc35)CCCC4)nn2)ccn1)Nc1cccc2c1C1CCCCN1C2=O (racemic)
IC50 [1]: 0.8 µM | IC50 (SH-SY5Y): 13 µM | Activity [2]: 4.5% | Activity [3]: 40% | Activity [4]: 100% | Activity [5]: 84% | Activity [6]: 68% | Activity [7]: 1.7% | Activity [8]: 53% | Activity [9]: 100% | Activity [10]: 4.7% | Activity [11]: 97% | Activity [12]: 100% | Activity [13]: 100% | Activity [14]: 7% | Activity [15]: 65% | Activity [16]: 52% | Activity [17]: 41% | Activity [18]: 53% | Activity [19]: 39% | Activity [20]: 49% | Activity [21]: 73% | Activity [22]: 95% | Activity [23]: 100% | Activity [24]: 100% | Papp A→B (MDR1): 11.1 ×10⁻⁶ cm/s

From ChEMBL document CHEMBL4390652, “Design, biological evaluation and X-ray crystallography of nanomolar multifunctional ligands targeting simultaneously acetylcholinesterase and glycogen synthase kinase-3” (Eur J Med Chem, 2019)
